≈ marks a conversion by molar mass, not a printed value. Where two headings read alike, the source gives them in different places.
Assays:
[1] = tested on: Staphylococcus aureus strain NBRC 100910; assay: MIC against clinical isolates (Christiana Hospital); format: cell-based
S. aureus (ATCC #29213) = format: cell-based
MDR S. aureus (CH-11) = assay: Frequency of resistance (FoR) in vitro; format: cell-based
[2] = tested on: Staphylococcus haemolyticus strain JCM 2416; assay: microbe, parasite or virus in culture; conditions: JCM2416
[3] = tested on: Staphylococcus genus clinical strain CH-16 (16S ID n/a); assay: microbe, parasite or virus in culture; format: cell-based; conditions: clinical strain CH-16, drug resistance Y

Q: Which MIC ([1]; NBRC100910, clinical strain CH-01, drug resistance N) does the source give for `COc1cccc(OC)c1C(=O)N[C@@H]1C(=O)N2[C@@H]1SC(C)(C)[C@@H]2C(=O)O` [Methicillin] here?
A: Its MIC is 1 µg/mL (≈ 2.63 µM).

Q: What about the MIC ([1]; NBRC100910, clinical strain CH-02, drug resistance N) of the same molecule?
A: Its MIC is 1 µg/mL (≈ 2.63 µM).

Q: What about the MIC ([1]; NBRC100910, clinical strain CH-03, drug resistance N) of the same molecule?
A: The MIC was 1 µg/mL (≈ 2.63 µM).

Q: And the MIC ([1]; NBRC100910, clinical strain CH-04, drug resistance N)?
A: The MIC was 2 µg/mL (≈ 5.26 µM).

Q: And the MIC ([1]; NBRC100910, clinical strain CH-05, drug resistance N)?
A: Its MIC is 1 µg/mL (≈ 2.63 µM).

Q: What about the MIC ([1]; NBRC100910, clinical strain CH-06, drug resistance N) of the same molecule?
A: The MIC was 1 µg/mL (≈ 2.63 µM).

Q: What about the MIC ([1]; NBRC100910, clinical strain CH-07, drug resistance N) of the same molecule?
A: The MIC was 1 µg/mL (≈ 2.63 µM).

Q: And the MIC ([1]; NBRC100910, clinical strain CH-08, drug resistance N)?
A: Its MIC is 1 µg/mL (≈ 2.63 µM).

Q: What about the MIC ([1]; NBRC100910, clinical strain CH-09, drug resistance N) of the same molecule?
A: The MIC was 8 µg/mL (≈ 21 µM).

Q: What about the MIC ([1]; NBRC100910, clinical strain CH-10, drug resistance N) of the same molecule?
A: Its MIC is 1 µg/mL (≈ 2.63 µM).

Q: What about the MIC ([1]; NBRC100910, clinical strain CH-11, drug resistance Y) of the same molecule?
A: Its MIC is 32 µg/mL (≈ 84.1 µM).

Q: And the MIC ([1]; NBRC100910, clinical strain CH-12, drug resistance Y)?
A: Its MIC is 16 µg/mL (≈ 42.1 µM).

Q: And the MIC ([1]; NBRC100910, clinical strain CH-13, drug resistance Y)?
A: Its MIC is > 64 µg/mL.

Q: And the MIC ([1]; NBRC100910, clinical strain CH-14, drug resistance Y)?
A: The MIC was > 64 µg/mL.

Q: And the MIC ([1]; NBRC100910, clinical strain CH-15, drug resistance Y)?
A: Its MIC is > 64 µg/mL.

Q: What about the MIC ([1]; NBRC100910, clinical strain CH-17, drug resistance Y) of the same molecule?
A: The MIC was 16 µg/mL (≈ 42.1 µM).

Q: And the MIC ([1]; NBRC100910, clinical strain CH-20, drug resistance Y)?
A: Its MIC is 4 µg/mL (≈ 10.5 µM).

Q: And the “Frequency of resistance (FoR)” value (S. aureus (ATCC #29213); 2X MIC)?
A: Its value is <3.72 × 10^−10.

Q: And the “Frequency of resistance (FoR)” value (S. aureus (ATCC #29213); 3X MIC)?
A: Its value is <3.72 × 10^−10.

Q: And the “Frequency of resistance (FoR)” value (S. aureus (ATCC #29213); 4X MIC)?
A: Its value is <3.72 × 10^−10.

Q: What about the “Frequency of resistance (FoR)” value (S. aureus (ATCC #29213); 5X MIC) of the same molecule?
A: The value was <3.72 × 10^−10.

Q: And the “Frequency of resistance (FoR)” value (S. aureus (ATCC #29213); 10X MIC)?
A: Its value is <3.72 × 10^−10.

Q: And the “Frequency of resistance (FoR)” value (MDR S. aureus (CH-11); 2X MIC)?
A: The value was “resistant”.

Q: What about the “Frequency of resistance (FoR)” value (MDR S. aureus (CH-11); 3X MIC) of the same molecule?
A: Its value is “resistant”.

Q: What about the “Frequency of resistance (FoR)” value (MDR S. aureus (CH-11); 4X MIC) of the same molecule?
A: Its value is “resistant”.

Q: And the “Frequency of resistance (FoR)” value (MDR S. aureus (CH-11); 5X MIC)?
A: Its value is “resistant”.

Q: And the “Frequency of resistance (FoR)” value (MDR S. aureus (CH-11); 10X MIC)?
A: The value was “resistant”.

Q: What about the MIC [2] of the same molecule?
A: Its MIC is 8 µg/mL (≈ 21 µM).

Q: And the MIC [3]?
A: Its MIC is 64 µg/mL (≈ 168 µM).

— patent US20220133846A1, “NOVEL ANTIMICROBIAL COMPOUND AND USES THEREOF” (priority 2019, published 2022)
